Laboratory results reported in patent US10729653B2, “Pharmaceutical compositions comprising 2-oxo-1-pyrrolidine derivatives” (UCB BIOPHARMA SRL, priority 2009, dated 2020).

Tests used:
[1] = test system: fully amygdala-kindled rats; test: fully amygdala-kindled rats; type: in vivo, rat; conditions: for dose from which a significant suppression in motor-seizure severity is induced: fully amygdala-kindled rats
[2] = test system: rat hippocampal slices; conditions: background statement; cited from earlier work
[3] = test system: rat hippocampal slices; test: epileptiform responses in hippocampal slices (CA3 field potentials); type: cell-based, Sprague-Dawley rats; parameters: rate of spontaneous field bursting: dose or concentration left out as unconfirmed; conditions: for evoked epileptiform responses (PS1 amplitude, repetitive PSs) in CA3: high-K+/low-Ca2+ fluid (HKLCF) perfusion, fimbrial stimulation
Protocol: The effect of brivaracetam on epileptiform responses induced by high-K+/low-Ca2+ concentrations or by bicuculline was examined in transverse hippocampal slices prepared from Sprague-Dawley rats according to previously reported standard procedures. The epileptiform responses were induced by passing from a normal perfusion of artificial cerebrospinal fluid (ACSF) (K+3 mM; Ca2+2.4 mM) to either high-K+/low-Ca2+ fluid (HKLCF) (K+7.5 mM; Ca2+0.5 mM) or to […] bicuculline methiodide (BMI)-containing ACSF.
Extracellular field potentials (FPs) were recorded in the CA3 area of the slices with 2 M NaCl-filled glass microelectrodes. The evoked FPs were recorded at 10-min intervals in response to fimbrial stimulation with constant current rectangular pulses that elicit a single population spike (PS) of 50-75% of the maximal amplitude when the slice is in ACSF. In the HKLCF model, 2 min of spontaneous activity were also recorded, in the middle of each 10-min interval between the recordings of evoked responses.
Either brivaracetam or levetiracetam was added to the bathing fluid of the slices 20 min before shifting from ACSF to either HKLCF or […] BMI-containing ACSF, and was kept in the perfusion fluid throughout the experiment.

[4] = test system: genetically sound-sensitive male mice; test: audiogenic seizures in mice; type: in vivo; conditions: audiogenic seizure-susceptible mice; i.p., brivaracetam 30 min, levetiracetam 60 min pretreatment
Protocol: Audiogenic seizures in mice: Genetically sound-sensitive male mice (16-28 g; n=10 per group), responding with wild running, clonic and tonic convulsions to an acoustic stimulation, were used. Audiogenic seizures were induced by an acoustic stimulus (90 dB, 10-20 kHz) applied for 30 s. The mice were pretreated with either saline, brivaracetam (i.p., 30 min) or levetiracetam (i.p., 60 min), and the proportion of mice protected against clonic convulsions was used as the end point to assess anticonvulsant activity.

[5] = test system: refractory partial onset seizures; conditions: adult patients, adjunctive treatment; cited from earlier work
[6] = test system: corneal kindling of mice; test: corneal kindling of mice; type: in vivo
[7] = test system: post-herpetic neuralgia; conditions: patients; cited from earlier work
[8] = test system: tonic hindlimb extension induced by a maximal electroshock in mice; test: maximal electroshock in mice; type: in vivo; conditions: i.p. 30 min before seizure induction; higher ED50 values than in audiogenic mice
[9] = test system: GAERS rats; test: spontaneous SWDs in GAERS rats; type: in vivo, rat
[10] = test system: pentylenetetrazol-induced clonic convulsions in mice; test: chemically induced seizures in mice (pentylenetetrazol); type: in vivo; conditions: i.p. 30 min before seizure induction; higher ED50 values than in audiogenic mice
Protocol: The dose was selected based on dose-effect curves in saline-treated animals as the convulsive dose inducing clonic convulsions of all four extremities in 97% of the animals. Immediately after administration of the chemoconvulsant, the mice were placed individually in small plastic cages (25 13 8 cm) and observed for the presence of clonic convulsions in all four extremities, for 60 min. The occurrence of tonic convulsions (hindlimb extension) and mortality was also recorded during this interval. The proportion of mice protected against clonic convulsions was calculated and used as the end point for anticonvulsant activity.

Row | Compound | dose from which a significant suppression in motor-seizure severity is induced [1] [mg/kg] | after-discharge duration ([1]; up to 1700 mg kg-1) | epileptiform responses induced by high-K+/low-Ca2+ concentrations and by bicuculline [2] | evoked epileptiform responses (PS1 amplitude, repetitive PSs) in CA3 [3] | protection against the expression of clonic convulsions [4] | efficacy in the treatment of epilepsy [5] | incidence of generalized motor seizures after termination of treatment ([6]; continued corneal stimulations, group previously treated with the highest dose) | incidence of generalized motor seizures ([6]; pretreatment during corneal kindling, levetiracetam at higher doses) | efficacy in post-herpetic neuralgia [7] | after-discharge duration ([1]; highest dose tested (212.3 mg kg-1)) | protection against tonic hindlimb extension induced by a maximal electroshock [8] | dose from which spontaneous SWDs are significantly suppressed ([9]; GAERS rats) [mg/kg] | inhibition of spontaneous SWDs ([9]; highest dose tested (67.9 mg kg-1)) | protection against clonic convulsions induced by pentylenetetrazol [10] | rate of spontaneous field bursting ([3]; HKLCF)
1 | CC[C@@H](C(N)=O)N1CCCC1=O [Levetiracetam] | ≥ 170 | inactive | reduces epileptiform responses | reduced these epileptiform responses | protected |  |  |  |  |  |  |  |  |  | 
2 | CC[C@@H](C(N)=O)N1C[C@H](C=C(F)F)CC1=O [Seletracetam, (2S)-2-[(4S)-4-(2,2-difluorovinyl)-2-oxo-pyrrolidin-1-yl]butanamide] |  |  |  |  |  | effective in the treatment of epilepsy |  |  |  |  |  |  |  |  | 
3 | CCC[C@@H]1CC(=O)N([C@@H](CC)C(N)=O)C1 [Brivaracetam, (2S)-2-[(4R)-2-oxo-4-propyl-pyrrolidin-1-yl]butanamide] | ≥ 21.2 |  |  | reduced these epileptiform responses | protected | effective in the treatment of epilepsy | persistent reduction in the incidence of generalized motor seizures | significant reduction in the incidence of generalized motor seizures | effective in the treatment of patients with post-herpetic neuralgia | significantly reduced the after-discharge duration | protected | ≥ 2.1 | complete inhibition | protected | reduced the rate of this spontaneous bursting
